Assay results published in patent US4464383A, “Immunomodulator containing trithiazole pentamethine cyanine derivative” (priority 1981, dated 1984).
Where two headings read alike, the source gives them in different places.

Experiments:
Clinical test, Case 2 = type: in vivo, patient
Clinical test, Case 1 = type: in vivo, patient; settings: 50 μg. once a day, oral
[1] = Effect on carrageenan-induced edema in rat; type: in vivo, SD rats; settings: dose 0.005 to 0.05 μg./animal, oral, 30 minutes before carrageenan
Protocol: Five SD rats 7 to 8 weeks old weighing about 150 g. were used as one group. A 1% dispersion of carrageenan was injected intracutaneously into the foot pad of the right hind foot in a dose of 0.1 ml./rat. For 6 hours after the injection, the volume of the foot subjected to the injection was measured by a mercury plethysmography and the carrageenan-induced edema was estimated from the obtained measurements. Compound No. 3 was orally administered 30 minutes before the injection of the carrageenan dispersion.

[2] = Inhibition of adjuvant arthritis in rat, preventive effect (paw volume); type: in vivo, SD rats
Protocol: (§1) Five SD rats 7 to 8 weeks old weighing about 150 g. were used as one group. A dispersion of mycobacterium butyricium in liquid parrafin in a concentration of 12 mg./ml. was injected intracutaneously into the footpad of the right hind foot in a dose of 0.05 ml./rat to cause an adjuvant arthritis (AA). For 30 days after the injection of the adjuvant, the volume of both hind feet was measured by a mercury plethysmography and AA was estimated from the obtained measurements.
(§2) With respect to Compound Nos. 1, 3 and 10, the preventive effect on AA was examined. The oral administration of the compound to be tested was begun at the same time as the administration of the adjuvant and continued for 30 days once a day. The same test was carried out with D-penicillamine and Levamisole.

[3] = prior art; cited from earlier work
Acute toxicity (LD50) = settings: mouse, in vivo, mice, 7 days observation
Protocol: Eight male ddY mice 5 to 6 weeks old weighing 25 to 30 g. were used as one group. A 5% suspension of the compound to be tested in gum arabic was administered intraperitoneally, intravenously or orally using a stomach tube. The animals were kept under observation for 7 days. The numbers of dead animals were counted and the LD50 values were calculated by the Van der Warden method.

[4] = Pharmacological activities and side-effects, general statements
[5] = Change in body weight of rat with adjuvant arthritis; type: in vivo, SD rats; settings: D-penicillamine or Levamisole; 1st, 10th, 20th and 30th day
Protocol: as §1, §2
During the test of the preventive effect on AA as described in the above (1), the body weight of each rat was measured on 1st, 10th, 20th, and 30th day.

[6] = 100 μg. once a day, oral, after 5 days
[7] = after 3 weeks, twice a week after 7 days, oral
[8] = dose 0.05 μg./animal, oral, once a day for 30 days
[9] = dose 1.5 mg./animal (even at a higher dose)

Compound: CCCCCCCN1C(C)=CS\C1=C/C=C(/C=C/c1scc(C)[n+]1CCCCCCC)c1scc(C)[n+]1CCCCCCC
- systemic malaise and stiffness in the morning (Clinical test, Case 2; 100 μg. once a day, oral, after 3 days): relieved
- inflammation at the joints (Clinical test, Case 2; [6]): relieved
- need for suppository of Indometacin (Clinical test, Case 2; [6]): no necessity for administering the suppository of Indometacin
- sleep (Clinical test, Case 2; [6]): became to sleep well
- side-effect (Clinical test, Case 2; 100 μg., oral): No side-effect was observed
- ability to walk (Clinical test, Case 2; [7]): became to be able to walk
- swelling (hydrocele) at the joints (Clinical test, Case 2; [7]): improved
- side-effect (Clinical test, Case 1): no side-effect
- therapeutic effect (Clinical test, Case 1): excellent therapeutic effect
- inflammation at wrist articulatio coxae and violent pain (Clinical test, Case 1; after 5 days): almost removed
- stiffness in the morning and systemic malaise (Clinical test, Case 1; after 5 days): relieved
- mobility (Clinical test, Case 1; morning of the seventh day): could arise from a sickbed and go down the stairs with ease
- anti-inflammatory action on carrageenan-induced edema [1]: did not show anti-inflammatory action
- inhibition of AA, preventive effect ([2]; dose 0.005 μg./animal, oral, once a day for 30 days): inhibited AA
- inhibition of AA, preventive effect [2, 8]: inhibit AA
- known pharmacological activities [3]: antibacterial activity, the acceleration of wound healing, the stimulation of reticular hematopoietic organ and endocrine organ, and the enhancement of antibody formation
- LD50 at 168 h (Acute toxicity (LD50); ip, i.p., read-out: LD50 i.p.): 100 mg/kg
- LD50 at 168 h (Acute toxicity (LD50); iv, i.v., read-out: LD50 i.v.): 12 mg/kg
- LD50 at 168 h (Acute toxicity (LD50); po, p.o., read-out: LD50 p.o.): > 1400 mg/kg
- side-effects ([4]; cytotoxicity (e.g. granulocytopenia), vomiting, nausea, pyrexia, rash and myasthenia): does not have side-effects
- immunomodulating action ([4]; immunological function enhanced): shows an immunosuppressive effect
- immunomodulating action ([4]; immunological function lowered): shows an immunological activating effect
- immunomodulating action ([4]; normal immunological function): has no influence on the normal immunological function

Compound: CCCCCCCCN1C(C)=CS\C1=C/C=C(/C=C/c1scc(C)[n+]1CCCCCCCC)c1scc(C)[n+]1CCCCCCCC
- LD50 at 168 h (Acute toxicity (LD50); ip, i.p., read-out: LD50 i.p.): 120 mg/kg
- LD50 at 168 h (Acute toxicity (LD50); iv, i.v., read-out: LD50 i.v.): 13.5 mg/kg
- LD50 at 168 h (Acute toxicity (LD50); po, p.o., read-out: LD50 p.o.): > 1400 mg/kg

Compound: O=C([O-])c1ccccc1Nc1cc(Cl)ccc1C(=O)[O-].[Na+].[Na+] [CCA, N-(2-carboxyphenyl)-4-chloroanthranilic acid disodium salt]
- toxicity of known immunomodulators [3]: severe toxicities

Compound: CC(C)(S)[C@@H](N)C(=O)O [D-penicillamine]
- inhibition of AA, preventive effect [2, 9]: do not inhibit AA
- toxicity of known immunomodulators [3]: severe toxicities
- change in body weight compared with Control [5]: no significant difference

Compound: COc1ccc2c(c1)c(CC(=O)O)c(C)n2C(=O)c1ccc(Cl)cc1 [Indometacin, reference compound]
- side-effect of the medicines used before (Clinical test, Case 2; human, in vivo): gastric ulcer, urticaria and diarrhea
- condition of the patient on previous treatment (Clinical test, Case 2; suppository of Shiozol and that of Indometacin, before Compound No. 3): took a turn for the worse

Compound: c1ccc([C@H]2CN3CCSC3=N2)cc1 [Levamisole]
- inhibition of AA, preventive effect [2, 9]: do not inhibit AA
- toxicity of known immunomodulators [3]: severe toxicities
- change in body weight compared with Control [5]: no significant difference

Compound: CC1=CSC(=CC=C(C=Cc2scc(C)[n+]2C)c2scc(C)[n+]2C)N1C [compound 1]
- inhibition of AA, preventive effect [2, 8]: inhibit AA
- LD50 at 168 h (Acute toxicity (LD50); ip, i.p., read-out: LD50 i.p.): 23.4 mg/kg
- LD50 at 168 h (Acute toxicity (LD50); iv, i.v., read-out: LD50 i.v.): 6.25 mg/kg
- LD50 at 168 h (Acute toxicity (LD50); po, p.o., read-out: LD50 p.o.): > 1400 mg/kg

Compound: CCCCN1C(C)=CSC1=CC=C(C=Cc1scc(C)[n+]1CCCC)c1scc(C)[n+]1CCCC [compound 2]
- LD50 at 168 h (Acute toxicity (LD50); ip, i.p., read-out: LD50 i.p.): 51 mg/kg
- LD50 at 168 h (Acute toxicity (LD50); iv, i.v., read-out: LD50 i.v.): 8.5 mg/kg
- LD50 at 168 h (Acute toxicity (LD50); po, p.o., read-out: LD50 p.o.): > 1400 mg/kg

Compound: CCCCCCCCCCCCN1C(C)=CSC1=CC=C(C=Cc1scc(C)[n+]1CCCCCCCCCCCC)c1scc(C)[n+]1CCCCCCCCCCCC [compound 10]
- inhibition of AA, preventive effect [2, 8]: inhibit AA
- LD50 at 168 h (Acute toxicity (LD50); ip, i.p., read-out: LD50 i.p.): 300 mg/kg
- LD50 at 168 h (Acute toxicity (LD50); iv, i.v., read-out: LD50 i.v.): 45.2 mg/kg
- LD50 at 168 h (Acute toxicity (LD50); po, p.o., read-out: LD50 p.o.): > 1400 mg/kg
